Results: US20040006070A1, “Intraspinal continuous infusion of midazolam hydrochloride for the treatment of pain” (priority 2002, published 2004)
Counter-ions that a name gives are not always drawn.

Assay: Bloodwork: complete blood count, electrolytes, extended blood chemistry
Format: in vivo, sheep
Details: for Total Bili: ref 0.14-0.32; for Creatinine: ref 1-2.7; for Albumin: ref 2.4-3; for K+: ref 3.9-5.4; for Phos: ref 5-7.3; for Total Prot: ref 6-7.9
Experimental: Indirect blood pressure, pulse recording, pain testing (mechanical stimulus device, cold and warm water baths see description in procedure) and weight were taken on days 1, 3, 7, 15, 22, 29, 36, and 43. Venous blood samples (15 ml drawn from the jugular vein with Vacutainer brand blood collection tubes) for complete blood count, electrolytes, and extended blood chemistry were drawn on days 1, 15, and 43 (mild procedure only light hand restraint necessary).

Work on Cc1ncc2n1-c1ccc(Cl)cc1C(c1ccccc1F)=NC2 [Midazolam, midazolam hydrochloride] yielded a Glucose (sheep #91, 15 mg/day, Day 1) of 77 mg/dL, a Hct (sheep #91, 15 mg/day, Day 1) of 29.2% and a Hgb (sheep #91, 15 mg/day, Day 1) of 9.84 g/dL. The MCH (sheep #91, 15 mg/day, Day 1) was 10.7 pg, the MCHC (sheep #91, 15 mg/day, Day 1) was 33.7 g/dL and the MCV (sheep #91, 15 mg/day, Day 1) was 31.8 fL. For the same compound, the “Na+” value (sheep #91, 15 mg/day, Day 1) was 149 mEq/l, the “Platlet Count” value (sheep #91, 15 mg/day, Day 1) was 996000 µL⁻¹ and the RBC (sheep #91, 15 mg/day, Day 1) was 9.18e+06 µL⁻¹. The WBC (sheep #91, 15 mg/day, Day 1) was 7090 µL⁻¹, the “Total Bili” value (sheep #91, 15 mg/day, Day 1) was 0.1 mg/dL and the Creatinine (sheep #91, 15 mg/day, Day 1) was 1.6 mg/dL. For the same compound, the Albumin (sheep #91, 15 mg/day, Day 1) was 3.3 g/dL, the “K+” value (sheep #91, 15 mg/day, Day 1) was 4.9 mEq/l and the Phos (sheep #91, 15 mg/day, Day 1) was 6.2 mg/dL. For the same compound, the “Total Prot” value (sheep #91, 15 mg/day, Day 1) was 6.1 g/dL, the ALT (sheep #91, 15 mg/day, Day 15) was 10 U/L and the AST (sheep #91, 15 mg/day, Day 15) was 50 U/L. The “Alk Phos” value (sheep #91, 15 mg/day, Day 15) was 162 U/L, the BUN (sheep #91, 15 mg/day, Day 15) was 13 mg/dL and the CPK (sheep #91, 15 mg/day, Day 15) was 56 U/L. For the same compound, the Cholesterol (sheep #91, 15 mg/day, Day 15) was 56 mg/dL, the “Differential Count: Eosin” value (sheep #91, 15 mg/day, Day 15) was 12% and the “Differential Count: Lymph” value (sheep #91, 15 mg/day, Day 15) was 44%. For the same compound, the “Differential Count: Seg” value (sheep #91, 15 mg/day, Day 15) was 44%, the “Gamma GT” value (sheep #91, 15 mg/day, Day 15) was 60 U/L and the Glucose (sheep #91, 15 mg/day, Day 15) was 83 mg/dL. It also gave a Hct (sheep #91, 15 mg/day, Day 15) of 31.8%, a Hgb (sheep #91, 15 mg/day, Day 15) of 10.8 g/dL and an MCH (sheep #91, 15 mg/day, Day 15) of 10.8 pg. The MCHC (sheep #91, 15 mg/day, Day 15) was 34.0 g/dL, the MCV (sheep #91, 15 mg/day, Day 15) was 31.8 fL and the “Na+” value (sheep #91, 15 mg/day, Day 15) was 148 mEq/l. The “Platlet Count” value (sheep #91, 15 mg/day, Day 15) was 848000 µL⁻¹, the RBC (sheep #91, 15 mg/day, Day 15) was 1e+07 µL⁻¹ and the WBC (sheep #91, 15 mg/day, Day 15) was 5130 µL⁻¹. The “Total Bili” value (sheep #91, 15 mg/day, Day 15) was 0.0 mg/dL, the Creatinine (sheep #91, 15 mg/day, Day 15) was 1.3 mg/dL and the Albumin (sheep #91, 15 mg/day, Day 15) was 3.3 g/dL. For the same compound, the “K+” value (sheep #91, 15 mg/day, Day 15) was 4.4 mEq/l, the Phos (sheep #91, 15 mg/day, Day 15) was 6.1 mg/dL and the “Total Prot” value (sheep #91, 15 mg/day, Day 15) was 6.2 g/dL. The ALT (sheep #91, 15 mg/day, Day 43) was 9 U/L, the AST (sheep #91, 15 mg/day, Day 43) was 63 U/L and the “Alk Phos” value (sheep #91, 15 mg/day, Day 43) was 174 U/L. For the same compound, the BUN (sheep #91, 15 mg/day, Day 43) was 14 mg/dL, the CPK (sheep #91, 15 mg/day, Day 43) was 54 U/L and the Cholesterol (sheep #91, 15 mg/day, Day 43) was 66 mg/dL. For the same compound, the “Differential Count: Eosin” value (sheep #91, 15 mg/day, Day 43) was 5%, the “Differential Count: Lymph” value (sheep #91, 15 mg/day, Day 43) was 41% and the “Differential Count: Mono” value (sheep #91, 15 mg/day, Day 43) was 2%. The “Differential Count: Seg” value (sheep #91, 15 mg/day, Day 43) was 52%, the “Gamma GT” value (sheep #91, 15 mg/day, Day 43) was 58 U/L and the Glucose (sheep #91, 15 mg/day, Day 43) was 81 mg/dL. The Hct (sheep #91, 15 mg/day, Day 43) was 36.3%, the Hgb (sheep #91, 15 mg/day, Day 43) was 12.2 g/dL and the MCH (sheep #91, 15 mg/day, Day 43) was 10.4 pg. For the same compound, the MCHC (sheep #91, 15 mg/day, Day 43) was 33.6 g/dL, the MCV (sheep #91, 15 mg/day, Day 43) was 30.9 fL and the “Na+” value (sheep #91, 15 mg/day, Day 43) was 147 mEq/l. The “Platlet Count” value (sheep #91, 15 mg/day, Day 43) was 805000 µL⁻¹, the RBC (sheep #91, 15 mg/day, Day 43) was 1.18e+07 µL⁻¹ and the WBC (sheep #91, 15 mg/day, Day 43) was 5330 µL⁻¹. For the same compound, the “Total Bili” value (sheep #91, 15 mg/day, Day 43) was 0.1 mg/dL, the Creatinine (sheep #91, 15 mg/day, Day 43) was 1.5 mg/dL and the Albumin (sheep #91, 15 mg/day, Day 43) was 3.6 g/dL. For the same compound, the “K+” value (sheep #91, 15 mg/day, Day 43) was 4.6 mEq/l, the Phos (sheep #91, 15 mg/day, Day 43) was 7.3 mg/dL and the “Total Prot” value (sheep #91, 15 mg/day, Day 43) was 6.4 g/dL. The ALT (sheep #457, 15 mg/day, Day 1) was 10 U/L, the AST (sheep #457, 15 mg/day, Day 1) was 85 U/L and the “Alk Phos” value (sheep #457, 15 mg/day, Day 1) was 43 U/L. The BUN (sheep #457, 15 mg/day, Day 1) was 14 mg/dL, the CPK (sheep #457, 15 mg/day, Day 1) was 122 U/L and the Cholesterol (sheep #457, 15 mg/day, Day 1) was 59 mg/dL. The “Differential Count: Eosin” value (sheep #457, 15 mg/day, Day 1) was 1%, the “Differential Count: Lymph” value (sheep #457, 15 mg/day, Day 1) was 26% and the “Differential Count: Seg” value (sheep #457, 15 mg/day, Day 1) was 73%. For the same compound, the “Gamma GT” value (sheep #457, 15 mg/day, Day 1) was 59 U/L, the Glucose (sheep #457, 15 mg/day, Day 1) was 91 mg/dL and the Hct (sheep #457, 15 mg/day, Day 1) was 34.4%. The Hgb (sheep #457, 15 mg/day, Day 1) was 10.5 g/dL, the MCH (sheep #457, 15 mg/day, Day 1) was 10.2 pg and the MCHC (sheep #457, 15 mg/day, Day 1) was 30.5 g/dL. The MCV (sheep #457, 15 mg/day, Day 1) was 33.4 fL, the “Na+” value (sheep #457, 15 mg/day, Day 1) was 147 mEq/l and the “Platlet Count” value (sheep #457, 15 mg/day, Day 1) was 276000 µL⁻¹. The RBC (sheep #457, 15 mg/day, Day 1) was 8.68e+06 µL⁻¹, the WBC (sheep #457, 15 mg/day, Day 1) was 11900 µL⁻¹ and the “Total Bili” value (sheep #457, 15 mg/day, Day 1) was 0.1 mg/dL. The Creatinine (sheep #457, 15 mg/day, Day 1) was 1.1 mg/dL, the Albumin (sheep #457, 15 mg/day, Day 1) was 2.8 g/dL and the “K+” value (sheep #457, 15 mg/day, Day 1) was 4.4 mEq/l. For the same compound, the Phos (sheep #457, 15 mg/day, Day 1) was 6.2 mg/dL, the “Total Prot” value (sheep #457, 15 mg/day, Day 1) was 5.0 g/dL and the ALT (sheep #457, 15 mg/day, Day 15) was 14 U/L. The AST (sheep #457, 15 mg/day, Day 15) was 55 U/L, the “Alk Phos” value (sheep #457, 15 mg/day, Day 15) was 93 U/L and the BUN (sheep #457, 15 mg/day, Day 15) was 20 mg/dL. For the same compound, the CPK (sheep #457, 15 mg/day, Day 15) was 73 U/L, the Cholesterol (sheep #457, 15 mg/day, Day 15) was 65 mg/dL and the “Differential Count: Lymph” value (sheep #457, 15 mg/day, Day 15) was 71%. The “Differential Count: Mono” value (sheep #457, 15 mg/day, Day 15) was 3%, the “Differential Count: Seg” value (sheep #457, 15 mg/day, Day 15) was 24% and the “Gamma GT” value (sheep #457, 15 mg/day, Day 15) was 72 U/L. For the same compound, the Glucose (sheep #457, 15 mg/day, Day 15) was 60 mg/dL, the Hct (sheep #457, 15 mg/day, Day 15) was 35.4% and the Hgb (sheep #457, 15 mg/day, Day 15) was 10.9 g/dL. For the same compound, the MCH (sheep #457, 15 mg/day, Day 15) was 10.6 pg, the MCHC (sheep #457, 15 mg/day, Day 15) was 30.8 g/dL and the MCV (sheep #457, 15 mg/day, Day 15) was 34.4 fL. For the same compound, the “Na+” value (sheep #457, 15 mg/day, Day 15) was 150 mEq/l, the “Platlet Count” value (sheep #457, 15 mg/day, Day 15) was 45000 µL⁻¹ and the RBC (sheep #457, 15 mg/day, Day 15) was 8.72e+06 µL⁻¹. For the same compound, the WBC (sheep #457, 15 mg/day, Day 15) was 15400 µL⁻¹, the “Total Bili” value (sheep #457, 15 mg/day, Day 15) was 0.1 mg/dL and the Creatinine (sheep #457, 15 mg/day, Day 15) was 1.1 mg/dL. For the same compound, the Albumin (sheep #457, 15 mg/day, Day 15) was 3.3 g/dL, the “K+” value (sheep #457, 15 mg/day, Day 15) was 4.4 mEq/l and the Phos (sheep #457, 15 mg/day, Day 15) was 4.7 mg/dL. For the same compound, the “Total Prot” value (sheep #457, 15 mg/day, Day 15) was 5.9 g/dL, the ALT (sheep #457, 15 mg/day, Day 43) was 12 U/L and the AST (sheep #457, 15 mg/day, Day 43) was 69 U/L. For the same compound, the “Alk Phos” value (sheep #457, 15 mg/day, Day 43) was 105 U/L, the BUN (sheep #457, 15 mg/day, Day 43) was 15 mg/dL and the CPK (sheep #457, 15 mg/day, Day 43) was 51 U/L. The Cholesterol (sheep #457, 15 mg/day, Day 43) was 88 mg/dL, the “Differential Count: Eosin” value (sheep #457, 15 mg/day, Day 43) was 7% and the “Differential Count: Lymph” value (sheep #457, 15 mg/day, Day 43) was 68%. For the same compound, the “Differential Count: Mono” value (sheep #457, 15 mg/day, Day 43) was 2%, the “Differential Count: Seg” value (sheep #457, 15 mg/day, Day 43) was 23% and the “Gamma GT” value (sheep #457, 15 mg/day, Day 43) was 61 U/L. For the same compound, the Glucose (sheep #457, 15 mg/day, Day 43) was 67 mg/dL, the Hct (sheep #457, 15 mg/day, Day 43) was 40.4% and the Hgb (sheep #457, 15 mg/day, Day 43) was 12.6 g/dL. For the same compound, the MCH (sheep #457, 15 mg/day, Day 43) was 11.5 pg, the MCHC (sheep #457, 15 mg/day, Day 43) was 31.2 g/dL and the MCV (sheep #457, 15 mg/day, Day 43) was 33.7 fL. For the same compound, the “Na+” value (sheep #457, 15 mg/day, Day 43) was 145 mEq/l, the RBC (sheep #457, 15 mg/day, Day 43) was 1.098e+07 µL⁻¹ and the WBC (sheep #457, 15 mg/day, Day 43) was 11200 µL⁻¹. For the same compound, the “Total Bili” value (sheep #457, 15 mg/day, Day 43) was 0.1 mg/dL, the Creatinine (sheep #457, 15 mg/day, Day 43) was 1.4 mg/dL and the Albumin (sheep #457, 15 mg/day, Day 43) was 3.3 g/dL. The “K+” value (sheep #457, 15 mg/day, Day 43) was 4.9 mEq/l, the Phos (sheep #457, 15 mg/day, Day 43) was 5.9 mg/dL and the “Total Prot” value (sheep #457, 15 mg/day, Day 43) was 5.7 g/dL. It also gave an ALT (sheep #473, 3 mg/day, Day 1) of 22 U/L.
